Where two headings read alike, the source gives them in different places.
Legend:
human TLR8 = human TLR8 (Homo sapiens (Human), UniProt Q9NR97); test: TLR8 inhibition reporter assay (HEK-Blue SEAP);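 note: SEAP driven by IFN-β minimal promoter carrying NF-κB and AP-1 sites, compounds dosed 0.05 nM to 50 µM for 22 h, inhibition scaled between agonist-plus-DMSO and reference-inhibitor wells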
human TLR7 = human TLR7 (Homo sapiens (Human), UniProt Q9NYK1); test: TLR7 inhibition reporter assay (HEK-Blue SEAP); type: cell-based
Chain of human TLR7 (Q9NYK1 27-1049): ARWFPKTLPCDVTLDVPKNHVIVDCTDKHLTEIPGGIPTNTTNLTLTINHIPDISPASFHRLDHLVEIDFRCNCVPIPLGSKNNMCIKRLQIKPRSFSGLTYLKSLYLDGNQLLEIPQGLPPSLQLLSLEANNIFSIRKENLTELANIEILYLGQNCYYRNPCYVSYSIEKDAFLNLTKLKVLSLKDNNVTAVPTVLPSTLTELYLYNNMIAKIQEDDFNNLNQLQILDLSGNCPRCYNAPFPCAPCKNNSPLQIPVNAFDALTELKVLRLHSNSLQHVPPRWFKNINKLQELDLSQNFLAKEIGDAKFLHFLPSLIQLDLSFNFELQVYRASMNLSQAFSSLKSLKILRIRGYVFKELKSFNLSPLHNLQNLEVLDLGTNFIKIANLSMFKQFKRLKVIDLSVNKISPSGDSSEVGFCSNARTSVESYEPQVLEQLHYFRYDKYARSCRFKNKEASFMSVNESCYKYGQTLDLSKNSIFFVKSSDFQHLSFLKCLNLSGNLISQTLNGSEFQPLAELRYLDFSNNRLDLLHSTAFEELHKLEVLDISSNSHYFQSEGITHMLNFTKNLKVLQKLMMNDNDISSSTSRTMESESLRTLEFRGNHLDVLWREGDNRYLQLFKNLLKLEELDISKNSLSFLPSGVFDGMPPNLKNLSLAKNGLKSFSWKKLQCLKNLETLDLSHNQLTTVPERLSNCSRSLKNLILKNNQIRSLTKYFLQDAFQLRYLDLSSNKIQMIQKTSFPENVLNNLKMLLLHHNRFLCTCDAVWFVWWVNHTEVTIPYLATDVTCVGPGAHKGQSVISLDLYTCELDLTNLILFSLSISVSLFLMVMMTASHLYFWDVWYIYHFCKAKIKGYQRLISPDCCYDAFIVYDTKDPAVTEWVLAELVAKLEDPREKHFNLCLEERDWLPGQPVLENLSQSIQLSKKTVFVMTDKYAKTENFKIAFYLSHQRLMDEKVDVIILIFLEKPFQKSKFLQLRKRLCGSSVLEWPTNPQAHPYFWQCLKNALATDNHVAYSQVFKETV

human TLR9 = human TLR9 (Homo sapiens (Human), UniProt Q9NR96); test: TLR9 inhibition reporter assay (HEK-Blue SEAP);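 note: SEAP driven by an IFN-β minimal promoter with NF-κB and AP-1 sites, read after 22 h, compounds dosed 0.05 nM–50 µM, inhibition scaled between agonist plus DMSO and reference-inhibitor wells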
Chain of human TLR9 (Q9NR96 26-1032): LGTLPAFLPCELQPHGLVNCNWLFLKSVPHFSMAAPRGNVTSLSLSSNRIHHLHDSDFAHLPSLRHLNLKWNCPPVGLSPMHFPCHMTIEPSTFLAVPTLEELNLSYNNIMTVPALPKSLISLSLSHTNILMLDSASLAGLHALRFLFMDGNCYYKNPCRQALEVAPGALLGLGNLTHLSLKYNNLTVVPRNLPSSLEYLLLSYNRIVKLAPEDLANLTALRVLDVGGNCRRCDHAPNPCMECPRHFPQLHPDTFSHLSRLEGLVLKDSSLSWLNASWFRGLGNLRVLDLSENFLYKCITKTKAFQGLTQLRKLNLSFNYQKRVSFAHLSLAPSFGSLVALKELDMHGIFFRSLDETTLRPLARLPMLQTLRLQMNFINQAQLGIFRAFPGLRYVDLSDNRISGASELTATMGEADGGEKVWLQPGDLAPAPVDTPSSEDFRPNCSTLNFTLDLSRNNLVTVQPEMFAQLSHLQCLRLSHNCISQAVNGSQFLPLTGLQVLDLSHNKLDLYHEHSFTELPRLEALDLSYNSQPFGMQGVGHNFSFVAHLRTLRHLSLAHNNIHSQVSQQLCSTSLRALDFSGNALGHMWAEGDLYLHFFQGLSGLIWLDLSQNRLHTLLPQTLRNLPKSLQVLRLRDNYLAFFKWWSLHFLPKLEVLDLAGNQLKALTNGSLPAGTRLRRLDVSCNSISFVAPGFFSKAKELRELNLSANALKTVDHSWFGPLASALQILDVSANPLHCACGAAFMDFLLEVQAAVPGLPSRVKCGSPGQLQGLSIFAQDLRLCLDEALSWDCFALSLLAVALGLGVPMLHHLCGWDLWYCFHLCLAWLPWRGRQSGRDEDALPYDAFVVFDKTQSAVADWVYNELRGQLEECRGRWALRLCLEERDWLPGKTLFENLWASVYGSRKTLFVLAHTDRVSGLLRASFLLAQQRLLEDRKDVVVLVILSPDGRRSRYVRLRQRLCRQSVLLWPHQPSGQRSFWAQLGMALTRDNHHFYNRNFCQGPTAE

[1] = read-out: TLR8 IC50, HEK-Blue human TLR8 cells, R848 15.9 μM
[2] = HEK-Blue human TLR7 cells, gardiquimod 7.5 μM
[3] = read-out: TLR9 IC50, HEK-Blue human TLR9 cells, ODN2006 5 nM
[4] = read-out: TLR8 IC50, HEK-Blue cells overexpressing human TLR8, R848 15.9 μM stimulation, SEAP reporter
[5] = HEK-Blue cells overexpressing human TLR7, gardiquimod 7.5 μM stimulation, SEAP reporter
[6] = read-out: TLR9 IC50, HEK-Blue cells overexpressing human TLR9, ODN2006 5 nM stimulation, SEAP reporter
[7] = TLR8 IC50, HEK-Blue human TLR8 cells, R848 15.9 μM
[8] = TLR9 IC50, HEK-Blue human TLR9 cells, ODN2006 5 nM
[9] = read-out: TLR8 IC50, HEK-Blue cells overexpressing human TLR8, SEAP reporter, R848 15.9 μM
[10] = HEK-Blue cells overexpressing human TLR7, SEAP reporter, gardiquimod 7.5 μM
[11] = read-out: TLR9 IC50, HEK-Blue cells overexpressing human TLR9, SEAP reporter, ODN2006 5 nM

Chain of human TLR8 (Q9NR97 27-1041): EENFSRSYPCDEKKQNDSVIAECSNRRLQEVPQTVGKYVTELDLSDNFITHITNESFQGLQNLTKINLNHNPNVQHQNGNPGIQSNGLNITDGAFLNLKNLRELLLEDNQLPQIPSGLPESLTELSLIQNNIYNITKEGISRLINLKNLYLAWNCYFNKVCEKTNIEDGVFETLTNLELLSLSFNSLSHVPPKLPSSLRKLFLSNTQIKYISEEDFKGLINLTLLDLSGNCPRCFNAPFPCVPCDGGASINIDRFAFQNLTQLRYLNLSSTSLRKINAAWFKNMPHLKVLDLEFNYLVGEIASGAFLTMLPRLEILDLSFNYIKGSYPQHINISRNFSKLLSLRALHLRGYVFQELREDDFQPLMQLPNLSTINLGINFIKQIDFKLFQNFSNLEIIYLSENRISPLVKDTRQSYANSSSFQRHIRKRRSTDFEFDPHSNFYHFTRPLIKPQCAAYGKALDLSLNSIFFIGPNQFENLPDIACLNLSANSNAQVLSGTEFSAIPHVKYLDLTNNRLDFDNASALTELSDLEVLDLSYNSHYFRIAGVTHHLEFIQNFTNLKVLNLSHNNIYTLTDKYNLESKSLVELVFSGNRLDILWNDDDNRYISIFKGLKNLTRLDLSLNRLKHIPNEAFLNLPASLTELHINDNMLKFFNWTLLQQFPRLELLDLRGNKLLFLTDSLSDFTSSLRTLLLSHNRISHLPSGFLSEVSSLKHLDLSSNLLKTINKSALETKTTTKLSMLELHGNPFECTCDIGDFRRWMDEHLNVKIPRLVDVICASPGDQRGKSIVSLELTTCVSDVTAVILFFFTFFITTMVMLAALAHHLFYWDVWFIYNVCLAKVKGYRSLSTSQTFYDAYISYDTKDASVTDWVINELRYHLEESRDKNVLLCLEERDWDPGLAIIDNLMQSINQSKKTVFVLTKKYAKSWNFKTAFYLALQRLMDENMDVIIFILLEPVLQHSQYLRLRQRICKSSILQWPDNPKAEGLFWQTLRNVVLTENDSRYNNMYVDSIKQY

SMILES	IC50 (human TLR8; [1])	IC50 (human TLR7; [2])	IC50 (human TLR9; [3])	IC50 (human TLR8; [9])	IC50 (human TLR7; [10])	IC50 (human TLR9; [11])	other results
Cc1c(-c2[nH]c3ccc(N4CCN(C(=O)CN5CC6(COC6)C5)CC4)nc3c2C(C)C)cn2ncnc2c1C [Example 1033]	974 nM	1090 nM	22400 nM				
Cc1c(-c2[nH]c3ccc(N4C[C@@H](C)N(C(=O)CCN5CCC5)C[C@@H]4C)nc3c2C(C)C)cn2ncnc2c1C [Example 892]	1.4 nM	0.62 nM	3280 nM				
Cc1c(-c2[nH]c3ccc(N4CCCNCC4)nc3c2C(C)C)cn2ncnc2c1C [Example 162]							IC50 (human TLR8; [4]): 2.8 nM; IC50 (human TLR7; [5]): 2.8 nM; IC50 (human TLR9; [6]): 23100 nM
[2H]C([2H])(C(=O)N1CCN(c2ccc3[nH]c(-c4cn5ncnc5c(C)c4C)c(C(C)C)c3n2)CC1)N(C)C (single isomer, unassigned) [Example 889]		1.5 nM					IC50 (human TLR8; [7]): 0.76 nM; IC50 (human TLR9; [8]): 9840 nM
CCCCN1CCN(c2ccc3[nH]c(-c4cc(OC)c5ncnn5c4)c(C(C)C)c3n2)CC1 [Example 115]							IC50 (human TLR8; [4]): 0.49 nM; IC50 (human TLR7; [5]): 1.2 nM; IC50 (human TLR9; [6]): 3480 nM
Cc1c(-c2[nH]c3ccc(N4CC5(CN(CC#N)C5)C4)nc3c2C(C)C)cn2ncnc2c1C [Example 1008]	32 nM	15 nM	13300 nM				
Cc1c(-c2[nH]c3ccc(C4CNCCN4)nc3c2C(C)C)cn2ncnc2c1C (stereo not drawn) [Example 680, 6-(3-isopropyl-5-(piperazin-2-yl)-1H-pyrrolo[3,2-b]pyridin-2-yl)-7,8-dimethyl-[1,2,4]triazolo[1,5-a]pyridine]				5.2 nM	12 nM	1060 nM	
Cc1c(-c2[nH]c3ccc(CCC4CN(Cc5c[nH]nn5)C4)nc3c2C(C)C)cn2ncnc2c1C [Example 705]				15 nM	18 nM	655 nM	
Cc1c(-c2[nH]c3ccc(C4CCC(N5CCC6(CCOC6)C5)CC4)nc3c2C(C)C)cn2ncnc2c1C (stereo not drawn) [Example 1066]	11 nM	9 nM	4290 nM				
Cc1c(-c2[nH]c3ccc(C4CCC(N5CCC6(COC6)C5)CC4)nc3c2C(C)C)cn2ncnc2c1C (stereo not drawn) [Example 1063]	18 nM	10 nM	8060 nM				
Cc1c(-c2[nH]c3ccc(N4CCN(C(=O)CN(CC(C)C)C(C)C)CC4)nc3c2C(C)C)cn2ncnc2c1C [Example 880]	30 nM	6.4 nM	19300 nM				
CCN(CC)C1CCN(c2ccc3[nH]c(-c4cn5ncnc5c(C)c4C)c(C(C)C)c3n2)CC1 [Example 70]							IC50 (human TLR8; [4]): 1.2 nM; IC50 (human TLR7; [5]): 2.3 nM; IC50 (human TLR9; [6]): 2970 nM
Cc1c(-c2[nH]c3ccc(C4CCC(N(C)C(C)C)CC4)nc3c2C(C)C)cn2ncnc2c1C (stereo not drawn) [Example 364]							IC50 (human TLR8; [4]): 9.6 nM; IC50 (human TLR7; [5]): 1.5 nM; IC50 (human TLR9; [6]): 2520 nM
COc1cc(-c2[nH]c3ccc(C4CCC(NCC(=O)N(C)C)CC4)nc3c2C(C)C)cn2ncnc12 (stereo not drawn) [Example 231]							IC50 (human TLR8; [4]): 3 nM; IC50 (human TLR7; [5]): 0.61 nM; IC50 (human TLR9; [6]): 365 nM
Cc1c(-c2[nH]c3ccc(N4[C@@H]5CC[C@H]4CN(C(=O)CN(C)C(C)C)C5)nc3c2C(C)C)cn2ncnc2c1C [Example 923]	3.6 nM	1.2 nM	6560 nM				
COc1cc(-c2[nH]c3ccc(C4CCC(NCC5(C)COC5)C4)nc3c2C(C)C)cn2ncnc12 (stereo not drawn) [Example 711]				2.9 nM	2 nM	1700 nM	
Cc1c(-c2[nH]c3ccc(N4[C@@H](C)CN(CCC(N)=O)C[C@@H]4C)nc3c2C(C)C)cn2ncnc2c1C [Example 753]				12 nM	[…]	27900 nM	
Cc1c(-c2[nH]c3ccc(C4CCC(N5CC(C)(C)C5)CC4)nc3c2C(C)C)cn2ncnc2c1C (stereo not drawn) [Example 1040]	0.66 nM	0.17 nM	1110 nM				
COCCN1CC2(C1)CN(c1ccc3[nH]c(-c4cn5ncnc5c(C)c4C)c(C(C)C)c3n1)C2 [Example 1013]	9.2 nM	11 nM	7680 nM				

SMILES	IC50 (human TLR8; [1])	IC50 (human TLR7; [2])	IC50 (human TLR9; [3])	IC50 (human TLR8; [9])	IC50 (human TLR7; [10])	IC50 (human TLR9; [11])	other results
CCN(C)CC(=O)N1[C@H](C)CN(c2ccc3[nH]c(-c4cn5ncnc5c(C)c4C)c(C(C)C)c3n2)C[C@H]1C [Example 927]	3.7 nM	2.9 nM	4360 nM				
Cc1c(-c2[nH]c3ccc(N4C[C@H](C)N(C(=O)CN5CC6(COC6)C5)C[C@H]4C)nc3c2C(C)C)cn2ncnc2c1C [Example 935]	2.9 nM	0.48 nM	5610 nM				
CC(C)c1c(-c2cn(C)c3ncncc23)[nH]c2ccc(N3CCN(C(=O)CN(C)C)CC3)nc12 [Example 123]							IC50 (human TLR8; [4]): 6.3 nM; IC50 (human TLR7; [5]): 1.9 nM; IC50 (human TLR9; [6]): 8650 nM
Cc1c(-c2[nH]c3ccc(C4CCC(NC5CCS(=O)(=O)C5)CC4)nc3c2C(C)C)cn2ncnc2c1C (stereo not drawn) [Example 470]				6 nM	1.3 nM	7420 nM	
Cc1cc(-c2[nH]c3ccc(C4CN(C(=O)CN(C)C)CCO4)nc3c2C(C)C)cn(C)c1=O (stereo not drawn) [Example 677]				53 nM	17 nM	> 50000 nM	
CNC(=O)CNC1CC(c2ccc3[nH]c(-c4cc(OC)c5ncnn5c4)c(C(C)C)c3n2)C1 (stereo not drawn) [Example 628]				3.3 nM	2.1 nM	343 nM	
COc1cc(-c2[nH]c3ccc(C4CCC(N5CC6(CCOC6)C5)CC4)nc3c2C(C)C)cn2ncnc12 (stereo not drawn) [Example 1070]	0.72 nM	0.54 nM	845 nM				
CNC1CCN(c2ccc3[nH]c(-c4cn5ncnc5c(C)c4C)c(C(C)C)c3n2)CC1 [Example 995]	0.48 nM	0.56 nM	7020 nM				
CCN(CC(=O)N(C)C)C1CCC(c2nc3c(C(C)C)c(-c4cn5ncnc5c(C)c4C)[nH]c3cc2F)CC1 (stereo not drawn) [Example 509]				30 nM	17 nM	9100 nM	
Cc1c(-c2[nH]c3ccc(C4CCC(N5CC(S(C)(=O)=O)C5)CC4)nc3c2C(C)C)cn2ncnc2c1C (stereo not drawn) [Example 448]				24 nM	7.5 nM	7690 nM	
CNC(=O)CNC1CCC(c2ccc3[nH]c(-c4cc(OC)c5ncnn5c4)c(C(C)C)c3n2)C1 (stereo not drawn) [Example 719]				7 nM	2.8 nM	2600 nM	
CC(C)c1c(-c2cc(CO)c3ncnn3c2)[nH]c2ccc(C3CCC(NC4COC4)CC3)nc12 (stereo not drawn) [Example 215]							IC50 (human TLR8; [4]): 7.6 nM; IC50 (human TLR7; [5]): […]; IC50 (human TLR9; [6]): 2250 nM
Cc1c(-c2[nH]c3ccc(C4CCC(NCCS(N)(=O)=O)CC4)nc3c2C(C)C)cn2ncnc2c1C (stereo not drawn) [Example 446]				0.91 nM	0.91 nM	364 nM	
Cc1c(-c2[nH]c3ccc(N4C[C@@H](C)N(C(=O)CN5CC6(COC6)C5)[C@H](C)C4)nc3c2C(C)C)cn2ncnc2c1C [Example 929]	3.9 nM	2.6 nM	5090 nM				
Cc1c(-c2[nH]c3ccc(C4CN(CC(N)=O)C4)nc3c2C(C)C)cn2ncnc2c1C [Example 646]				11 nM	2.1 nM	4140 nM	
CC(C)c1c(-c2cn(C)c3ncncc23)[nH]c2ccc(N3CCN(C(C)C)CC3)nc12 [Example 126]							IC50 (human TLR8; [4]): 1.5 nM; IC50 (human TLR7; [5]): 5.9 nM; IC50 (human TLR9; [6]): 6120 nM
Cc1c(-c2[nH]c3ccc(N4CCN(C(=O)CN5CCC(O)CC5)CC4)nc3c2C(C)C)cn2ncnc2c1C [Example 160]							IC50 (human TLR8; [4]): 1.2 nM; IC50 (human TLR7; [5]): 1.8 nM; IC50 (human TLR9; [6]): 10600 nM
[2H]C([2H])([2H])N(CC(=O)N1C([2H])([2H])C([2H])([2H])N(c2ccc3[nH]c(-c4cn5ncnc5c(C)c4C)c(C(C)C)c3n2)C([2H])([2H])C1([2H])[2H])C([2H])([2H])[2H] (single isomer, unassigned) [Example 859]		0.97 nM					IC50 (human TLR8; [7]): 1.5 nM; IC50 (human TLR9; [8]): 7310 nM
COc1cc(-c2[nH]c3cc(C)c(C4CCC(NC5(C)COC5)CC4)nc3c2C(C)C)cn2ncnc12 (stereo not drawn) [Example 311]							IC50 (human TLR8; [4]): 44 nM; IC50 (human TLR7; [5]): 2.8 nM; IC50 (human TLR9; [6]): 2020 nM

— US10544143B2, “4-azaindole compounds” (BRISTOL-MYERS SQUIBB COMPANY, priority 2017, dated 2020)
